# Source: patent US7968601B2, “Adamantyl acetamides as 11-β hydroxysteroid dehydrogenase inhibitors” (Janssen Pharmaceutica N.V., priority 2002, dated 2011)
# Experiments:
# 11b-HSD2 [1] = target: T1, 11b-HSD2 (Homo sapiens, UniProt P80365); experiment: Cellular assay, 11b-HSD2 activity in HepG2 cells; format: cell-based; parameters: endogenous in cells; host or cells: HepG2 (ATCC HB-8065); conditions: 4 hour pre-incubation, pIC50 scored 1-3, read-out: [C2] HSD2 cellular HepG2 Score
# T1 sequence (P80365 1-405): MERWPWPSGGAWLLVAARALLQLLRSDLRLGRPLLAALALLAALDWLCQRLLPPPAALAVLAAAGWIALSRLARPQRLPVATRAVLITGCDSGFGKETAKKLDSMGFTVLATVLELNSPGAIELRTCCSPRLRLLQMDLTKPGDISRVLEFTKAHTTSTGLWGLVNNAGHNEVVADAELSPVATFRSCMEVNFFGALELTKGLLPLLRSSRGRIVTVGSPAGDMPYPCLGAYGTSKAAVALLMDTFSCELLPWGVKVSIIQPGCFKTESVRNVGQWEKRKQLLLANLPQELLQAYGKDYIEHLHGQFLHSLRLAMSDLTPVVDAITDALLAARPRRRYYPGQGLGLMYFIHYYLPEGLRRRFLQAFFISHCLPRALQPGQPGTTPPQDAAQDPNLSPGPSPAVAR
# Experimental: The effects on 11b-HSD2 activity was studied in HepG2 and LCC-PK1-cells HepG2-cells (ATCC HB-8065) were seeded in 12 well plates at a density of 100,000 cells/ml and grown at 37 C in a humidified 5% CO2 atmosphere in MEM-Rega-3 medium supplemented with 10% heat inactivated foetal calf serum, 2 mM L-glutamine and sodium bicarbonate). Medium was refreshed twice a week. Pig kidney cells (LCC-PK1, ATCC CRL-1392) were seeded at a density of 150,000 cells/ml in 12 well plates and grown at 37 C in a humidified 5% CO2 atmosphere in Medium 199 supplemented with Earls modified salt solution, 100 U/ml penicillin, 100 μg/ml streptomycin and 10% foetal calf serum. Medium was refreshed twice a week. Twenty four hours prior to the onset of the experiment, medium was changed by medium containing 10% charcoal stripped foetal calf serum.
# Following a 4 hour pre-incubation with test compound, 0.5 μCi ^3H-cortisol or corticosterone, was added to the cultures. One hour later, the medium was extracted on Extrelut^3-columns with 15 ml diethyl ether and the extract was analysed by HPLC as described above.
# (§1) As for the enzymatic assays, the compounds to be tested were taken from a stock solution and tested at a final concentration ranging from […] to 3.10^−9M. From the thus obtained dose response curves, the pIC50 value was calculated and scored as follows; Score 1=pIC50 value<5, Score 2=pIC50 value in the range of 5 to 6, Score 3=pIC50 value>6. (in this table NT stands for Not Tested).
# 11b-HSD1 [2] = target: 11b-HSD1 (Homo sapiens, UniProt P28845); experiment: Enzymatic assay, 11b-HSD1 reductase activity (conversion of cortisone into cortisol); format: biochemical; conditions: pIC50 scored 1-3, read-out: [C1] HSD1-prot Reduct Score
# Experimental: The effects of compounds on 11b-HSD1 dependent conversion of cortisone into cortisol (reductase activity) was studied in a reaction mixture containing 30 mM Tris-HCl buffer pH 7.2, 180 μM NADPH, 1 mM EDTA, 2 μM cortisone, 1 μl drug and/or solvent and 11 μg recombinant protein in a final volume of 100 μl.
# (§2) All incubations were performed for 45 min at 37 C in a water bath. The reaction was stopped by adding 100 μl acetonitrile containing 20 μg corticosterone as internal standard. After centrifugation, the product formation was analysed in the supernatant by HPLC on a Hypersyl BDS-C18 column using 0.05 mM ammonium acetate/methanol (50/50) as solvent. In all of the aforementioned assays, the drugs to be tested were taken from a stock solution and tested at a final concentration ranging from […] to 3.10^−9M. From the thus obtained dose response curves, the pIC50 value was calculated and scored as follows; Score 1=pIC50 value<5, Score 2=pIC50 value in the range of 5 to 6, Score 3=pIC50 value>6. (in this table NT stands for Not Tested).
# 11b-HSD2 [3] = target: T1, 11b-HSD2; experiment: Enzymatic assay, 11b-HSD2 dependent dehydrogenase activity; format: biochemical; conditions: 11b-HSD2 dehydrogenase activity, pIC50 scored 1-3, read-out: [C1] HSD2 prot Dehydro Score
# Experimental: The effects on the 11b-HSD2 dependent dehydrogenase activity was studied in a reaction mixture containing 0.1M sodium phosphate buffer pH 7.5, 300 μM NAD, 100 nM cortisol (of which 2 nM is 3H-radio labelled), 1 μl drug and/or solvent and 2.5 μg recombinant protein in a final volume of 100 μl.
# as §2
# 11b-HSD1 [4] = target: T2, 11b-HSD1 (Mus musculus, UniProt P50172); experiment: Cellular assay, 11b-HSD1 activity in differentiated 3T3-L1 cells; format: cell-based; conditions: 4 hour pre-incubation, pIC50 scored 1-3, read-out: [C2] HSD1 cellular 3T3-L1 Score
# T2 construct: endogenous in cells; host or cells: 3T3-L1 (ATCC-CL-173), differentiated into adipocytes
# Experimental: The effects on 11b-HSD1 activity was measured in differentiated 3T3-L1 cells and rat hepatocytes.
# Mouse fibroblast 3T3-L1 cells (ATCC-CL-173) were seeded at a density of 16500 cells/ml in 12 well plates and grown for 7 days in DMEM medium (supplemented with 10% heat inactivated foetal calf serum, 2 mM glutamine and 25 mg gentamycin) at 37 C in a humidified 5% CO2 atmosphere. Medium was refreshed twice a week. Fibroblasts were differentiated into adipocytes at 37 C in a 5% CO2 humidified atmosphere in growth medium containing 2 μg/ml insulin, 55 μg/ml IBMX and 39.2 μg/ml dexamethasone.
# Following a 4 hour pre-incubation with test compound, 0.5 μCi ^3H-cortisone or dehydrocorticosterone, was added to the cultures. One hour later, the medium was extracted on Extrelut^3-columns with 15 ml diethyl ether and the extract was analysed by HPLC as described above.
# as §1
# T2 sequence (P50172 whole entry): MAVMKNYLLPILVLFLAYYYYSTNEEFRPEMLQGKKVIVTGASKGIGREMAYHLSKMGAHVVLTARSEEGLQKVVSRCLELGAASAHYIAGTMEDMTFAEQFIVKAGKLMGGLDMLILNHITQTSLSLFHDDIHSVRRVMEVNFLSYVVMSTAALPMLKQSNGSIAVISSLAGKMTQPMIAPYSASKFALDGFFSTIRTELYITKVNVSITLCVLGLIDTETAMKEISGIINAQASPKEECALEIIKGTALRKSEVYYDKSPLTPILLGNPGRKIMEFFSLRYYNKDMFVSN
# Chain of 11b-HSD1 (Homo sapiens, UniProt P28845) (P28845 whole entry): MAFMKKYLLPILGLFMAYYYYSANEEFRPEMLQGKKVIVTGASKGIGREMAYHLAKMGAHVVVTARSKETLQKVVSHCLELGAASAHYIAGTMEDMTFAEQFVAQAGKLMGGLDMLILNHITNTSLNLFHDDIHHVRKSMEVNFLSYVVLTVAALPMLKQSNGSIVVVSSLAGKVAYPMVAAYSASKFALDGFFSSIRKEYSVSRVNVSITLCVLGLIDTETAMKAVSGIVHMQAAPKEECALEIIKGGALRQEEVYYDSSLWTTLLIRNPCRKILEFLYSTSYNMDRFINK
Structure (SMILES),IC50 (11b-HSD2 [1]),IC50 (11b-HSD1 [2]),IC50 (11b-HSD2 [3]),IC50 (11b-HSD1 [4])
CC(C)(C(=O)NC1C2CC3CC(C2)CC1C3)c1ccc(F)cc1 (centres unmarked) [Compound 41],> 10 µM,< 1 µM,> 10 µM,< 1 µM
CC(C)(C(=O)NC1C2CC3CC(C2)CC1(O)C3)c1ccccc1 (centres unmarked) [Compound 91],> 10 µM,> 10 µM,> 10 µM,< 1 µM
CC(C)(C(=O)NC1C2CC3CC(C2)CC1C3)c1ccc2ccccc2c1 (centres unmarked) [Compound 138],> 10 µM,> 10 µM,> 10 µM,< 1 µM
O=C(O)CCc1cccc2c1CCCC2C(=O)NC1C2CC3CC(C2)CC1C3 (centres unmarked) [Compound 240],> 10 µM,> 10 µM,> 10 µM,< 1 µM
CN(C)CCCOc1cccc(C(C)(C)C(=O)NC2C3CC4CC(C3)CC2C4)c1 (centres unmarked) [Compound 92],> 10 µM,< 1 µM,> 10 µM,< 1 µM
O=C(NC1C2CC3CC(C2)CC1C3)C1=CCCCc2ccccc21 (centres unmarked) [Compound 168],> 10 µM,< 1 µM,> 10 µM,< 1 µM
CN(C)c1cccc(C(C)(C)C(=O)NC2C3CC4CC(C3)CC2C4)c1 (centres unmarked) [Compound 78],> 10 µM,< 1 µM,1 to 10 µM,< 1 µM
CC(C)(C(=O)N[C@H]1[C@@H]2CC3C[C@H]1C[C@](F)(C3)C2)c1cccc(CCC(=O)O)c1 [Compound 217],> 10 µM,1 to 10 µM,> 10 µM,< 1 µM
CNc1cccc(C(C)(C)C(=O)NC2C3CC4CC(C3)CC2C4)c1 (centres unmarked) [Compound 77],> 10 µM,> 10 µM,1 to 10 µM,< 1 µM
CC(C)(C(=O)N[C@H]1[C@@H]2CC3C[C@H]1C[C@](O)(C3)C2)c1cccc(OCCN2CCOCC2)c1 [Compound 158],> 10 µM,> 10 µM,> 10 µM,< 1 µM
CC1=C(C(=O)NC2C3CC4CC(C3)CC2C4)Cc2ccccc21 (centres unmarked) [Compound 141],> 10 µM,< 1 µM,> 10 µM,< 1 µM
CC(C)(C(=O)NC1C2CC3CC(C2)CC1C3)c1cccc(OCC(=O)O)c1 (centres unmarked) [Compound 6],> 10 µM,1 to 10 µM,> 10 µM,< 1 µM
Cc1cc(CCC(=O)N2CCOCC2)cc(C(C)(C)C(=O)N[C@H]2[C@@H]3CC4C[C@H]2C[C@](F)(C4)C3)c1 [Compound 251],> 10 µM,< 1 µM,> 10 µM,< 1 µM
Cc1cccc(C(C)(C)C(=O)NC2C3CC4CC(C3)CC2C4)c1 (centres unmarked) [Compound 89],> 10 µM,< 1 µM,> 10 µM,< 1 µM
O=C(NC1C2CC3CC(C2)CC1C3)C1CCc2ccccc21 (centres unmarked) [Compound 197],> 10 µM,> 10 µM,> 10 µM,< 1 µM
O=C(NC1C2CC3CC(C2)CC1C3)C1(c2cccnc2)CCCC1 (centres unmarked) [Compound 126],> 10 µM,< 1 µM,> 10 µM,< 1 µM
CCCOc1cccc(C(C)(C)C(=O)NC2C3CC4CC(C3)CC2C4)c1 (centres unmarked) [Compound 53],> 10 µM,> 10 µM,> 10 µM,< 1 µM
COc1cccc(C(C)(C)C(=O)NC2CCC3CCCC2C3)c1 (centres unmarked) [Compound 74],> 10 µM,< 1 µM,> 10 µM,< 1 µM
O=C(NC1C2CC3CC(C2)CC1C3)C1CCCCc2ccccc21 (centres unmarked) [Compound 169],> 10 µM,< 1 µM,> 10 µM,< 1 µM
CC(=CC(=O)NC1C2CC3CC(C2)CC1C3)c1ccccc1 (centres unmarked) [Compound 153],> 10 µM,1 to 10 µM,> 10 µM,< 1 µM
O=C(NC1C2CC3CC(C2)CC1C3)C1(c2ccncc2)CCCC1 (centres unmarked) [Compound 127],> 10 µM,> 10 µM,> 10 µM,< 1 µM
CN(C)c1ccc(C(C)(C)C(=O)NC2C3CC4CC(C3)CC2C4)cc1 (centres unmarked) [Compound 52],> 10 µM,> 10 µM,> 10 µM,< 1 µM
CC(=Cc1ccccc1)C(=O)NC1C2CC3CC(C2)CC1C3 (centres unmarked) [Compound 151],> 10 µM,1 to 10 µM,> 10 µM,< 1 µM
O=C(NC1C2CC3CC(C2)CC1C3)C1CCc2ccccc2C1 (centres unmarked) [Compound 224],> 10 µM,< 1 µM,> 10 µM,< 1 µM
CC(C)(C(=O)NC1C2CC3CC(C2)CC1C3)c1cccc2ccccc12 (centres unmarked) [Compound 137],> 10 µM,< 1 µM,> 10 µM,< 1 µM
CC(C)(C(=O)NC1C2CC3CC(C2)CC1C3)c1cccnc1 (centres unmarked) [Compound 128],> 10 µM,< 1 µM,> 10 µM,< 1 µM
